In series [1] the test system is patient with severe, chronic hypervitaminosis A. As to conditions: human, in vivo.
Procedure: (§1) The infusion was therefore discontinued and 250 mL of fresh frozen plasma was administered over 3 hours.
For series [2] the following is noted: in vivo.
Procedure: as §1

For 2-hydroxypropyl-β-cyclodextrin, the symptoms during infusion entry in series [1] is “generalized irritability and pain in the legs and shins”. Moreover, in series [2], the LDM was determined as 536 U/L; the “Serum pH and concentrations of glucose, protein, albumin, calcium, phosphate, and hepatic transaminases” value was “remained normal throughout the infusion”; the chloride is 107 M EQ/L; the sodium is listed as 138 M EQ/L.

Values taken from patent publication US4877778A, “Method of enhancing lipophile transport using cyclodextrin derivatives” (priority 1987, dated 1989).
